# Source: patent US7244431B2, “Allergy vaccines and their preparation” (priority 2000, dated 2007)
# What was measured:
# [1] = system: birch pollen allergic patients; assay: Skin prick testing of allergic patients; type: in vivo, human; conditions: 100 μg/ml
# Method: SPTs were performed on the individuals forearms as described ([…]. et al. (1997) J. Clin Invest. 99, 1673-168; Dreborg S: (1989) J. Am. Acad. DerMatol. 21, 820-821). […] In addition standardized skin prick solutions (birch pollen extract and histamine) (Allergopharma, Reinbek, Germany) were tested. Reactions were recorded 20 minutes after SPT by photography and by transferring the ballpoint pen-surrounded wheal area with a scotch tape to paper.
# [2] = system: IgE antibodies in sera from birch pollen allergic patients; assay: ELISA detection of peptide- and rBet v 1-specific IgE antibodies; type: binding, human
# Method: Birch pollen allergic patients suffering from allergic rhinoconjunctivitis and/or asthma to birch pollen and related allergens were selected according to case history indicative for seasonal birch pollinosis and characterized by skin prick testing with birch pollen extract and serological CAP RAST (Pharmacia Diagnostics, Uppsala, Sweden) testing. Total IgE levels in the sera were determined by CAP RIST measurements (Pharmacia). […] Sera from 60 birch pollen allergic patients and a non-atopic individual were used for IgE competition studies. The birch pollen allergic patients group consisted of 25 males and 35 females with a mean age of 37 years (ranging from 19-60 years) (Table 2).
# Subsequently, plates were incubated with 1:3 diluted sera from 60 birch pollen allergic patients and from a non-atopic individual overnight at 4° C. Bound IgE antibodies were detected with a 1:1000 diluted alkaline-phosphatase-coupled mouse monoclonal anti-human IgE antibody (Pharmingen, San Diego, Calif.).
sequence,measurement,setting,value
"CVDHTNFKYNYSVIEGGPIGDTLEKISNEIK [Peptide P6, Bet v 1-derived synthetic peptide, position aa 75-104, one cysteine added]",mean wheal diameter,[1]; individual 1,0 mm
same,mean wheal diameter,[1]; individual 2,0 mm
same,mean wheal diameter,[1]; individual 3,0 mm
same,mean wheal diameter,[1]; individual 4,0 mm
same,mean wheal diameter,[1]; individual 5,0 mm
same,mean wheal diameter,"[1]; individual 6 (allergic, without birch pollen allergy)",0 mm
same,IgE (OD),"[2]; serum of NHS, non-allergic control individual",— (Dashes indicate reactivities below the cut-off level (OD=0.050))
same,IgE (OD),[2]; serum of patient 1,— (Dashes indicate reactivities below the cut-off level (OD=0.050))
same,IgE (OD),[2]; serum of patient 2,— (Dashes indicate reactivities below the cut-off level (OD=0.050))
same,IgE (OD),[2]; serum of patient 3,— (Dashes indicate reactivities below the cut-off level (OD=0.050))
same,IgE (OD),[2]; serum of patient 4,— (Dashes indicate reactivities below the cut-off level (OD=0.050))
same,IgE (OD),[2]; serum of patient 5,— (Dashes indicate reactivities below the cut-off level (OD=0.050))
same,IgE (OD),[2]; serum of patient 6,— (Dashes indicate reactivities below the cut-off level (OD=0.050))
same,IgE (OD),[2]; serum of patient 7,— (Dashes indicate reactivities below the cut-off level (OD=0.050))
same,IgE (OD),[2]; serum of patient 8,— (Dashes indicate reactivities below the cut-off level (OD=0.050))
same,IgE (OD),[2]; serum of patient 9,— (Dashes indicate reactivities below the cut-off level (OD=0.050))
same,IgE (OD),[2]; serum of patient 10,— (Dashes indicate reactivities below the cut-off level (OD=0.050))
same,IgE (OD),[2]; serum of patient 11,— (Dashes indicate reactivities below the cut-off level (OD=0.050))
same,IgE (OD),[2]; serum of patient 12,— (Dashes indicate reactivities below the cut-off level (OD=0.050))
same,IgE (OD),[2]; serum of patient 13,— (Dashes indicate reactivities below the cut-off level (OD=0.050))
same,IgE (OD),[2]; serum of patient 14,— (Dashes indicate reactivities below the cut-off level (OD=0.050))
same,IgE (OD),[2]; serum of patient 15,— (Dashes indicate reactivities below the cut-off level (OD=0.050))
same,IgE (OD),[2]; serum of patient 16,— (Dashes indicate reactivities below the cut-off level (OD=0.050))
same,IgE (OD),[2]; serum of patient 17,— (Dashes indicate reactivities below the cut-off level (OD=0.050))
same,IgE (OD),[2]; serum of patient 18,— (Dashes indicate reactivities below the cut-off level (OD=0.050))
same,IgE (OD),[2]; serum of patient 19,— (Dashes indicate reactivities below the cut-off level (OD=0.050))
same,IgE (OD),[2]; serum of patient 20,— (Dashes indicate reactivities below the cut-off level (OD=0.050))
same,IgE (OD),[2]; serum of patient 21,— (Dashes indicate reactivities below the cut-off level (OD=0.050))
same,IgE (OD),[2]; serum of patient 22,— (Dashes indicate reactivities below the cut-off level (OD=0.050))
same,IgE (OD),[2]; serum of patient 23,— (Dashes indicate reactivities below the cut-off level (OD=0.050))
same,IgE (OD),[2]; serum of patient 24,— (Dashes indicate reactivities below the cut-off level (OD=0.050))
same,IgE (OD),[2]; serum of patient 25,— (Dashes indicate reactivities below the cut-off level (OD=0.050))
same,IgE (OD),[2]; serum of patient 26,— (Dashes indicate reactivities below the cut-off level (OD=0.050))
same,IgE (OD),[2]; serum of patient 27,— (Dashes indicate reactivities below the cut-off level (OD=0.050))
same,IgE (OD),[2]; serum of patient 28,— (Dashes indicate reactivities below the cut-off level (OD=0.050))
same,IgE (OD),[2]; serum of patient 29,— (Dashes indicate reactivities below the cut-off level (OD=0.050))
same,IgE (OD),[2]; serum of patient 30,— (Dashes indicate reactivities below the cut-off level (OD=0.050))
same,IgE (OD),[2]; serum of patient 31,— (Dashes indicate reactivities below the cut-off level (OD=0.050))
same,IgE (OD),[2]; serum of patient 32,— (Dashes indicate reactivities below the cut-off level (OD=0.050))
same,IgE (OD),[2]; serum of patient 33,— (Dashes indicate reactivities below the cut-off level (OD=0.050))
same,IgE (OD),[2]; serum of patient 34,— (Dashes indicate reactivities below the cut-off level (OD=0.050))
same,IgE (OD),[2]; serum of patient 35,— (Dashes indicate reactivities below the cut-off level (OD=0.050))
same,IgE (OD),[2]; serum of patient 36,— (Dashes indicate reactivities below the cut-off level (OD=0.050))
same,IgE (OD),[2]; serum of patient 37,— (Dashes indicate reactivities below the cut-off level (OD=0.050))
same,IgE (OD),[2]; serum of patient 38,— (Dashes indicate reactivities below the cut-off level (OD=0.050))
same,IgE (OD),[2]; serum of patient 39,— (Dashes indicate reactivities below the cut-off level (OD=0.050))
same,IgE (OD),[2]; serum of patient 40,— (Dashes indicate reactivities below the cut-off level (OD=0.050))
same,IgE (OD),[2]; serum of patient 41,— (Dashes indicate reactivities below the cut-off level (OD=0.050))
same,IgE (OD),[2]; serum of patient 42,— (Dashes indicate reactivities below the cut-off level (OD=0.050))
same,IgE (OD),[2]; serum of patient 43,— (Dashes indicate reactivities below the cut-off level (OD=0.050))
same,IgE (OD),[2]; serum of patient 44,— (Dashes indicate reactivities below the cut-off level (OD=0.050))
same,IgE (OD),[2]; serum of patient 45,— (Dashes indicate reactivities below the cut-off level (OD=0.050))
same,IgE (OD),[2]; serum of patient 46,— (Dashes indicate reactivities below the cut-off level (OD=0.050))
same,IgE (OD),[2]; serum of patient 47,— (Dashes indicate reactivities below the cut-off level (OD=0.050))
same,IgE (OD),[2]; serum of patient 48,— (Dashes indicate reactivities below the cut-off level (OD=0.050))
same,IgE (OD),[2]; serum of patient 49,— (Dashes indicate reactivities below the cut-off level (OD=0.050))
same,IgE (OD),[2]; serum of patient 50,— (Dashes indicate reactivities below the cut-off level (OD=0.050))
same,IgE (OD),[2]; serum of patient 51,— (Dashes indicate reactivities below the cut-off level (OD=0.050))
same,IgE (OD),[2]; serum of patient 52,— (Dashes indicate reactivities below the cut-off level (OD=0.050))
same,IgE (OD),[2]; serum of patient 53,— (Dashes indicate reactivities below the cut-off level (OD=0.050))
same,IgE (OD),[2]; serum of patient 54,— (Dashes indicate reactivities below the cut-off level (OD=0.050))
same,IgE (OD),[2]; serum of patient 55,— (Dashes indicate reactivities below the cut-off level (OD=0.050))
same,IgE (OD),[2]; serum of patient 56,— (Dashes indicate reactivities below the cut-off level (OD=0.050))
same,IgE (OD),[2]; serum of patient 57,— (Dashes indicate reactivities below the cut-off level (OD=0.050))
same,IgE (OD),[2]; serum of patient 58,— (Dashes indicate reactivities below the cut-off level (OD=0.050))
same,IgE (OD),[2]; serum of patient 59,— (Dashes indicate reactivities below the cut-off level (OD=0.050))
same,IgE (OD),[2]; serum of patient 60,— (Dashes indicate reactivities below the cut-off level (OD=0.050))
